Laboratory results as given in patent US12492169B2, “Aminopyridine compound and application thereof” (priority 2020, dated 2025).
Values after ≈ are worked out from the molar mass of the structure shown. Like-named read-outs stand apart in the source and are kept apart here.

Assays:
[1] = tested on: Cryptococcus neoformans H99 ATCC 208821; experiment: Minimum inhibitory concentration (MIC) test against fungi; type: cell-based; conditions: Cryptococcus neoformans, ATCC208821, 72 h, ≥50% growth inhibition by eye, three independent experiments, read-out: MIC
Method: (§1) To test the minimum inhibitory concentration (MIC) and minimum effective concentration (MEC) of the drug against fungi.
Cryptococcus neoformans H99 ATCC 208821;
(§2) Test medium: RPMI1640 (containing 0.165 M MOPS, pH7.0)
(§3) On the day of the experiment, the compound in the bottle was dissolved in 100% DMSO to a stock solution concentration of 6.24 mg/mL. Then, the mixture was 10-fold diluted with DMSO to 0.624 mg/mL for use.
(§4) A 2-fold gradient dilution of the compound solution (0.624 mg/mL) was performed using DMSO on a 96-microwell plate (V-bottom) to obtain 100× working solutions (wells 1 to 11). 624, 312, 156, 78, 39, 20, 10, 5, 2.5, 1.25, 0.625 μg/mL. 100% DMSO was used as a positive control (well 12). This was the compound stock plate.
Cryptococcus neoformans H99 ATCC 208821 frozen at −80° C. was streaked on SDA plates and incubated aerobically in a 35±2° C. incubator for 48 hours.
(§5) On the day of the experiment, for strains Candida parapsilosis ATCC 22019, Candida albicans ATCC MYA-2876; Candida albicans WX-CA009; Candida glabrata ATCC15126; Candida tropicalis ATCC 750 and Cryptococcus neoformans H99 ATCC 208821, the plates were taken out and the clones on the plates were picked, suspended in normal saline, and then the turbidity of the fungal suspension was adjusted to OD600=0.2 using a turbidimeter. The fungal suspension contained about 3.0×10^6 CFU/mL. Then the turbidity-adjusted fungal suspension was diluted with a test medium to a concentration of about 3.0×10^3 CFU/mL. This was the inoculum.
(§6) 2 μL of 100× working solution from the compound stock plate (prepared in 3.1) was transferred to a round-bottomed 96-well plate (containing 98 μL of test medium), and then 100 μL of fungus inoculum (prepared in 3.2) was added to each well to obtain a MIC test plate. Therefore, the final test concentrations of the compounds were 6.24, 3.12, 1.56, 0.78, 0.39, 0.20, 0.10, 0.05, 0.025, 0.0125, 0.006 μg/mL. 1% DMSO was used as a growth control.
For Cryptococcus neoformans H99 ATCC 208821, all test plates were incubated aerobically in a 35±2° C. incubator for 72 hours.
(§7) After incubation, according to the criteria in Table 1 below, the test plate was observed by eye or microscope to determine the MIC (g/mL) and MEC (g/mL) of the test compound against yeast and mold.

[2] = tested on: Candida albicans ATCC MYA-2876; experiment: Mouse candidemia efficacy model; type: in vivo; conditions: female CD-1 mice infected with Candida albicans ATCC MYA-2876
Method: Experimental animals: female CD-1 mice, 7 weeks old, 27 to 29 g, n=5 or 8;
microbial pathogen: Candida albicans ATCC MYA-2876;
inoculation level and route: 2.0 to 4.0E+05 CFU/mouse, infected by tail vein injection;
treatment: The treatment started at 1 hour after infection. Firstly, ABT was administered orally, and 2 hours later, the test compound was injected intraperitoneally once a day for 7 days in total, with an administration volume of 10 mL/kg.
Observation indicators: Changes in body weight and mortality within 7 days after infection in each group of mice.

[3] = tested on: Candida glabrata ATCC15126; experiment: Minimum inhibitory concentration (MIC) test against fungi; type: cell-based; conditions: ≥50% growth inhibition by eye, three independent experiments
Method: as §1
(§8) Experimental strains: Candida parapsilosis ATCC 22019; Candida albicans ATCC MYA-2876; Candida albicans WX-CA009; Candida glabrata ATCC15126; Candida tropicalis ATCC 750;
as §2, §3, §4
(§9) Candida parapsilosis ATCC 22019 and Candida albicans ATCC MYA-2876; Candida albicans WX-CA009; Candida glabrata ATCC15126; Candida tropicalis ATCC 750 frozen at −80° C. were streaked on SDA plates and incubated aerobically in a 35±2° C. incubator for 24 hours.
as §5, §6
(§10) For strains Candida parapsilosis ATCC 22019; Candida albicans ATCC MYA-2876; Candida albicans WX-CA009; Candida glabrata ATCC15126; Candida tropicalis ATCC 750, all test plates were incubated aerobically in a 35±2° C. incubator for 24 hours.
as §7

[4] = tested on: Candida parapsilosis ATCC 22019; experiment: as above; type: cell-based; conditions: Lodderomyces parapsilosis, ATCC22019, 24 h, ≥50% growth inhibition by eye, three independent experiments (1st, 2nd, 3rd time), read-out: MIC
Method: as §1, §8, §2, §3, §4, §9, §5, §6, §10, §7

[5] = tested on: Candida albicans WX-CA009; experiment: as above; type: cell-based; conditions: Candida albicans, WXCA009, 24 h, ≥50% growth inhibition by eye, three independent experiments, read-out: MIC
Method: as §1, §8, §2, §3, §4, §9, §5, §6, §10, §7

[6] = Mouse pharmacokinetic evaluation, intraperitoneal injection after oral ABT; type: in vivo; conditions: ip, female CD-1 mice, 26 mpk, ABT 50 mg/kg orally 2 hours before, plasma
Description: Experimental Purpose: Using female CD-1 mice as test animals, LC/MS/MS was used to measure the plasma drug concentration at different times after intraperitoneal injection of the test compound. To study the pharmacokinetic behavior of the test compound in mice and evaluate its pharmacokinetic characteristics. Drug preparation: An appropriate amount of sample was weighed and then prepared into a clear or suspended solution. Administration scheme: Two healthy female CD-1 mice were taken, purchased from Beijing Vital River Laboratory Animal Technology Co., Ltd., and given a normal diet. The drug was administered through intraperitoneal injection. Operational steps: 2 hours before administration, 1-aminobenzotriazole (ABT) was orally administered (50 mg/kg, 5 mg/mL in normal saline), and after animal administration, about 30 μL of blood was collected at 0.083, 0.25, 0.5, 1, 2, 4, 8, and 24 hours, and placed in commercially available anticoagulant tubes pre-added with EDTA-K2. The tubes were centrifuged for 10 minutes to separate the plasma, and the plasma was stored at −60° C. The content of the target compound in the plasma sample was determined by LC/MS/MS method, and the experimental results are shown in Table 3.

Compound: Nc1ccc(C#CCc2ccc(COc3ccccn3)cc2)cn1 [WX004]
- MIC [1]: 1.56 µg/mL (≈ 4.95 µM)
- protection from death caused by candidemia ([2]; 26 mg/kg intraperitoneally once a day for 7 days after 50 mg/kg ABT orally, n=5): completely protect
- survival rate ([2]; 6 mpk intraperitoneally once a day for 7 days after ABT orally, n=8): 100%
- MIC ([3]; Nakaseomyces glabratus, ATCC15126, 24 h, read-out: MIC): 0.39 µg/mL (≈ 1.24 µM)
- MIC ([3]; 24 hours): 0.78 µg/mL (≈ 2.47 µM)
- MIC [4]: 0.05 µg/mL (≈ 0.159 µM)
- MIC [5]: 0.025 µg/mL (≈ 0.0793 µM)
- AUC ([6]; read-out: Concentration Integral AUC): 305 µM·h
- Cmax ([6]; read-out: Peak Concentration Cmax): 19 µM
- Tmax ([6]; read-out: Peak Time Tmax): 1 h
